According to paper PMC8689225, “Cardiac ryanodine receptor N-terminal region biosensors identify novel inhibitors via FRET-based high-throughput screening” (The Journal of Biological Chemistry, 2021):
pEC50: −log10 of the molar value. Like-named read-outs stand apart in the source and are kept apart here. Values belong to the molecule of their own block, whether it stands above or below them.

Legend:
mouse RyR2 NTR = target: T1, mouse RyR2 NTR (Mus musculus, UniProt E9Q401, K30C/K441C, form not given); experiment: FLT-FRET dose-response with AC-NTR biosensor; type: binding; conditions: for decrease of donor-only FLT as share of the FLT change in the donor-acceptor sample: interference control, designated interfering compounds; for ΔFLT / saturation of FRET dose-response: 0 to 100 μM; for ΔFLT: CPNQ/corbadrine decrease FLT, FA/tacrolimus increase FLT; for saturation of FRET dose-response: decreased FLT
T1 sequence (E9Q401 1-547 K30C/K441C): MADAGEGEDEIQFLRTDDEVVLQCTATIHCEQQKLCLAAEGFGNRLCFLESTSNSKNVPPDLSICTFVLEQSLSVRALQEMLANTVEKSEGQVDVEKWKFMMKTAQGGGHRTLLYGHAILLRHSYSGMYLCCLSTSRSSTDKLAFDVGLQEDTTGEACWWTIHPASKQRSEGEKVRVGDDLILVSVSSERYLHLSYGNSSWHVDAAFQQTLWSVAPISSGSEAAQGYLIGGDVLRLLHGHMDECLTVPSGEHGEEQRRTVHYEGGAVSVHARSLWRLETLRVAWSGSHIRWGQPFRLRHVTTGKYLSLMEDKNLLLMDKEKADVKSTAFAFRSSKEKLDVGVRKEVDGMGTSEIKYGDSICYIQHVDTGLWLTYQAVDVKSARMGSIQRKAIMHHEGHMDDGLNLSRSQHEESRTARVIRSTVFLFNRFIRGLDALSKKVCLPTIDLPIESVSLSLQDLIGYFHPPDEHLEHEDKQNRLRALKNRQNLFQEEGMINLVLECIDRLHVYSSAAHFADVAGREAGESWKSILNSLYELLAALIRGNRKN
From the text: The NTR of mouse RyR2 (residues 1–547) was cloned and expressed as previously described ([27]). The DNA construct contains a 6×His tag, a maltose-binding protein (MBP) tag, and a tobacco etch virus (TEV) protease cleavage site. The seven native solvent-exposed cysteine residues were substituted with alanine residues, and two constructs were engineered with Cys substitutions at surface residues R383 and K441 (in the B and C domains, respectively; termed BC) and at K30 and K441 (in the A and C domains, respectively; termed AC) for labeling with spectroscopic probes such as appropriate donor–acceptor fluorophores for FRET (for the purpose of this report, these are considered the WT forms of AC and BC). A variant of the BC construct corresponding to the disease-associated mutant (R420Q) was also prepared. For this site-directed mutagenesis work, we used the QuikChange (Stratagene) and Phusion High-Fidelity PCR (Thermo Fisher Scientific) kits. The WT-NTR, R420Q-NTR, AC- and BC-NTR, AC- and BC-R420Q-NTR protein constructs were expressed in Escherichia coli Rosetta (DE3) pLacI cells at 18 °C and purified with a protocol adapted from previously published work ([26]). An amylose column was first applied after the cells were lysed by ultrasonication. The protein in the elution was then cleaved using TEV protease. The cleaved crude protein went through the second amylose column to separate from the MBP and then followed by a Superdex S-200 size exclusion column in a buffer consisting of 250 mM KCl, 10 mM HEPES, and 14 mM β-mercaptoethanol (pH 7.4). The NTR protein (3 μM) was then incubated in 10 mM HEPES, 250 mM KCl (pH 7.4, 2 h, 21 °C) with the fluorescent probes Alexa Fluor 488 maleimide (AF488, donor; 40 μM) and Alexa Fluor 568 maleimide (AF568, acceptor; 60 μM). The maleimide of the dye reacts with the thiols the Cys residues engineered into NTR, forming a covalently labeled protein. The Alexa dyes were added last to the reaction mixture, from 10 mM DMSO stock solutions. This reaction is not selective to one site (K30C or K441C), and we anticipate that there is a mixed population with K30C or K441C labeled with either AF488 (donor) or AF568 (acceptor). We focused on maximizing the fraction containing donor–acceptor pairs, thus maximizing FRET efficiency and the precision for detecting a change in structure as an indication that a compound interacts with the NTR biosensor. The labeling efficiency was determined by comparing the molar concentration of the bound dye, determined from UV-Vis absorbance, to the protein concentration, determined from gel densitometry. Essentially complete labeling was confirmed from electrospray ionization mass spectrometry. CD spectra of the WT-NTR and mutant R420Q-NTR constructs before and after labeling were recorded using a JASCO J-815 CD spectrometer (JASCO), confirming similar folding (Fig. S1).
The 1536-well assay plates were prepared as described in our previous reports ([21]). The LOPAC (Sigma-Aldrich) collection received in 96-well plates was reformatted into 384-well polypropylene intermediate plates (Greiner Bio-One) using a multichannel liquid handler, BioMek FX (Beckman Coulter), then transferred to 384-well Echo Qualified source plates (Labcyte Inc). Assay plates were prepared as previously described ([20]). On screening days, these plates were thawed out and were loaded with labeled NTR (5 μl, 20 nM final concentration) using a Multidrop Combi automated sample dispenser.
HTS measurements were conducted in a prototype top-read FLT plate reader (FLT-PR, Fluorescence Innovations, Inc), which reads each 1536-well plate in ∼3 min ([63], [64]). AF488 donor fluorescence was excited with a 473 nm microchip laser from Concepts Research Corporation, and the emission signal was split into two channels by a dichroic mirror and acquired with 517 ± 10 nm (channel 1) and 535 ± 7 nm band-pass filters (channel 2) (Semrock). […]

RyR2 = target: T2, RyR2 (Sus scrofa, UniProt A0A5G2R1W3); experiment: [3H]ryanodine binding to cardiac SR (CSR) vesicles; type: biochemical, pig; conditions: for pEC50: Table S4, read-out: EC50, [3H]ryanodine binding, cardiac SR; for effect on [3H]ryanodine binding to RyR2: cardiac SR
T2 construct: from tissue; host or cells: porcine cardiac left ventricle, crude SR vesicles
Protocol: (§1) Crude sarcoplasmic reticulum membrane vesicles were isolated from porcine longissimus dorsi muscle and porcine cardiac left ventricle tissue by differential centrifugation of homogenized tissue, as established previously ([65]). Skeletal heavy SR (HSR) vesicles, which are enriched with RyR1, were isolated by fractionation of crude skeletal SR vesicles using a discontinuous sucrose gradient, in accordance with our published work ([65]). All vesicles were flash-frozen and stored at −80 °C.
(§2) In 96-well plates, skeletal SR membranes (HSR, 1 mg/ml) and cardiac SR membranes (CSR, 3 mg/ml) were preincubated with 1% DMSO or hit compound for 30 min at 22 °C in a solution containing 150 mM KCl, 5 mM GSH, 1 μg/ml Aprotinin/Leupeptin, 1 mM EGTA, and 65 μM or 1.02 mM CaCl2 (as determined by MaxChelator to yield 30 nM or 30 μM of free Ca^2+, respectively), 0.1 mg/ml of BSA, and 20 mM K-PIPES (pH 7.0). Nonspecific [^3H]ryanodine binding to SR was assessed by addition of 40 μM nonradioactively labeled ryanodine. Maximal [^3H]ryanodine binding was assessed by addition of 5 mM adenylyl-imidodiphosphate (AMP-PNP), and in the case of CSR, 20 mM caffeine was added. These control samples were each loaded over four wells per plate. Binding of [^3H]ryanodine (7.5 and 10 nM for CSR and HSR, respectively) was determined following a 3 h incubation at 37 °C and filtration through grade GF/B glass microfiber filters (Brandel Inc) using a Brandel Harvester. In 4 ml of Ecolite scintillation cocktail (MP biomedicals), [^3H]ryanodine retained on the filter was counted using a Beckman LS6000 scintillation counter.

RyR1 = target: T3, RyR1 (Sus scrofa, UniProt P16960); experiment: [3H]ryanodine binding to skeletal SR (HSR) vesicles; type: biochemical, pig; conditions: for pEC50: Table S4, read-out: EC50, [3H]ryanodine binding, skeletal HSR; for maximum inhibitory effect on [3H]ryanodine binding / effect on [3H]ryanodine binding to RyR1: skeletal SR; for maximum inhibitory effect on [3H]ryanodine binding: 30 nM Ca2+; for effect on [3H]ryanodine binding to RyR1: 30 μM Ca2+
T3 construct: from tissue; host or cells: porcine longissimus dorsi muscle, heavy SR vesicles
Protocol: as §1, §2

RyR = test system: RyR; parameters: method as in PMID 27760856, PMID 32019969; conditions: cited from earlier work
[1] = AC-NTR biosensor, Hill fit, Table S4, read-out: EC50, FRET dose-response

T2 sequence (A0A5G2R1W3 20-4900): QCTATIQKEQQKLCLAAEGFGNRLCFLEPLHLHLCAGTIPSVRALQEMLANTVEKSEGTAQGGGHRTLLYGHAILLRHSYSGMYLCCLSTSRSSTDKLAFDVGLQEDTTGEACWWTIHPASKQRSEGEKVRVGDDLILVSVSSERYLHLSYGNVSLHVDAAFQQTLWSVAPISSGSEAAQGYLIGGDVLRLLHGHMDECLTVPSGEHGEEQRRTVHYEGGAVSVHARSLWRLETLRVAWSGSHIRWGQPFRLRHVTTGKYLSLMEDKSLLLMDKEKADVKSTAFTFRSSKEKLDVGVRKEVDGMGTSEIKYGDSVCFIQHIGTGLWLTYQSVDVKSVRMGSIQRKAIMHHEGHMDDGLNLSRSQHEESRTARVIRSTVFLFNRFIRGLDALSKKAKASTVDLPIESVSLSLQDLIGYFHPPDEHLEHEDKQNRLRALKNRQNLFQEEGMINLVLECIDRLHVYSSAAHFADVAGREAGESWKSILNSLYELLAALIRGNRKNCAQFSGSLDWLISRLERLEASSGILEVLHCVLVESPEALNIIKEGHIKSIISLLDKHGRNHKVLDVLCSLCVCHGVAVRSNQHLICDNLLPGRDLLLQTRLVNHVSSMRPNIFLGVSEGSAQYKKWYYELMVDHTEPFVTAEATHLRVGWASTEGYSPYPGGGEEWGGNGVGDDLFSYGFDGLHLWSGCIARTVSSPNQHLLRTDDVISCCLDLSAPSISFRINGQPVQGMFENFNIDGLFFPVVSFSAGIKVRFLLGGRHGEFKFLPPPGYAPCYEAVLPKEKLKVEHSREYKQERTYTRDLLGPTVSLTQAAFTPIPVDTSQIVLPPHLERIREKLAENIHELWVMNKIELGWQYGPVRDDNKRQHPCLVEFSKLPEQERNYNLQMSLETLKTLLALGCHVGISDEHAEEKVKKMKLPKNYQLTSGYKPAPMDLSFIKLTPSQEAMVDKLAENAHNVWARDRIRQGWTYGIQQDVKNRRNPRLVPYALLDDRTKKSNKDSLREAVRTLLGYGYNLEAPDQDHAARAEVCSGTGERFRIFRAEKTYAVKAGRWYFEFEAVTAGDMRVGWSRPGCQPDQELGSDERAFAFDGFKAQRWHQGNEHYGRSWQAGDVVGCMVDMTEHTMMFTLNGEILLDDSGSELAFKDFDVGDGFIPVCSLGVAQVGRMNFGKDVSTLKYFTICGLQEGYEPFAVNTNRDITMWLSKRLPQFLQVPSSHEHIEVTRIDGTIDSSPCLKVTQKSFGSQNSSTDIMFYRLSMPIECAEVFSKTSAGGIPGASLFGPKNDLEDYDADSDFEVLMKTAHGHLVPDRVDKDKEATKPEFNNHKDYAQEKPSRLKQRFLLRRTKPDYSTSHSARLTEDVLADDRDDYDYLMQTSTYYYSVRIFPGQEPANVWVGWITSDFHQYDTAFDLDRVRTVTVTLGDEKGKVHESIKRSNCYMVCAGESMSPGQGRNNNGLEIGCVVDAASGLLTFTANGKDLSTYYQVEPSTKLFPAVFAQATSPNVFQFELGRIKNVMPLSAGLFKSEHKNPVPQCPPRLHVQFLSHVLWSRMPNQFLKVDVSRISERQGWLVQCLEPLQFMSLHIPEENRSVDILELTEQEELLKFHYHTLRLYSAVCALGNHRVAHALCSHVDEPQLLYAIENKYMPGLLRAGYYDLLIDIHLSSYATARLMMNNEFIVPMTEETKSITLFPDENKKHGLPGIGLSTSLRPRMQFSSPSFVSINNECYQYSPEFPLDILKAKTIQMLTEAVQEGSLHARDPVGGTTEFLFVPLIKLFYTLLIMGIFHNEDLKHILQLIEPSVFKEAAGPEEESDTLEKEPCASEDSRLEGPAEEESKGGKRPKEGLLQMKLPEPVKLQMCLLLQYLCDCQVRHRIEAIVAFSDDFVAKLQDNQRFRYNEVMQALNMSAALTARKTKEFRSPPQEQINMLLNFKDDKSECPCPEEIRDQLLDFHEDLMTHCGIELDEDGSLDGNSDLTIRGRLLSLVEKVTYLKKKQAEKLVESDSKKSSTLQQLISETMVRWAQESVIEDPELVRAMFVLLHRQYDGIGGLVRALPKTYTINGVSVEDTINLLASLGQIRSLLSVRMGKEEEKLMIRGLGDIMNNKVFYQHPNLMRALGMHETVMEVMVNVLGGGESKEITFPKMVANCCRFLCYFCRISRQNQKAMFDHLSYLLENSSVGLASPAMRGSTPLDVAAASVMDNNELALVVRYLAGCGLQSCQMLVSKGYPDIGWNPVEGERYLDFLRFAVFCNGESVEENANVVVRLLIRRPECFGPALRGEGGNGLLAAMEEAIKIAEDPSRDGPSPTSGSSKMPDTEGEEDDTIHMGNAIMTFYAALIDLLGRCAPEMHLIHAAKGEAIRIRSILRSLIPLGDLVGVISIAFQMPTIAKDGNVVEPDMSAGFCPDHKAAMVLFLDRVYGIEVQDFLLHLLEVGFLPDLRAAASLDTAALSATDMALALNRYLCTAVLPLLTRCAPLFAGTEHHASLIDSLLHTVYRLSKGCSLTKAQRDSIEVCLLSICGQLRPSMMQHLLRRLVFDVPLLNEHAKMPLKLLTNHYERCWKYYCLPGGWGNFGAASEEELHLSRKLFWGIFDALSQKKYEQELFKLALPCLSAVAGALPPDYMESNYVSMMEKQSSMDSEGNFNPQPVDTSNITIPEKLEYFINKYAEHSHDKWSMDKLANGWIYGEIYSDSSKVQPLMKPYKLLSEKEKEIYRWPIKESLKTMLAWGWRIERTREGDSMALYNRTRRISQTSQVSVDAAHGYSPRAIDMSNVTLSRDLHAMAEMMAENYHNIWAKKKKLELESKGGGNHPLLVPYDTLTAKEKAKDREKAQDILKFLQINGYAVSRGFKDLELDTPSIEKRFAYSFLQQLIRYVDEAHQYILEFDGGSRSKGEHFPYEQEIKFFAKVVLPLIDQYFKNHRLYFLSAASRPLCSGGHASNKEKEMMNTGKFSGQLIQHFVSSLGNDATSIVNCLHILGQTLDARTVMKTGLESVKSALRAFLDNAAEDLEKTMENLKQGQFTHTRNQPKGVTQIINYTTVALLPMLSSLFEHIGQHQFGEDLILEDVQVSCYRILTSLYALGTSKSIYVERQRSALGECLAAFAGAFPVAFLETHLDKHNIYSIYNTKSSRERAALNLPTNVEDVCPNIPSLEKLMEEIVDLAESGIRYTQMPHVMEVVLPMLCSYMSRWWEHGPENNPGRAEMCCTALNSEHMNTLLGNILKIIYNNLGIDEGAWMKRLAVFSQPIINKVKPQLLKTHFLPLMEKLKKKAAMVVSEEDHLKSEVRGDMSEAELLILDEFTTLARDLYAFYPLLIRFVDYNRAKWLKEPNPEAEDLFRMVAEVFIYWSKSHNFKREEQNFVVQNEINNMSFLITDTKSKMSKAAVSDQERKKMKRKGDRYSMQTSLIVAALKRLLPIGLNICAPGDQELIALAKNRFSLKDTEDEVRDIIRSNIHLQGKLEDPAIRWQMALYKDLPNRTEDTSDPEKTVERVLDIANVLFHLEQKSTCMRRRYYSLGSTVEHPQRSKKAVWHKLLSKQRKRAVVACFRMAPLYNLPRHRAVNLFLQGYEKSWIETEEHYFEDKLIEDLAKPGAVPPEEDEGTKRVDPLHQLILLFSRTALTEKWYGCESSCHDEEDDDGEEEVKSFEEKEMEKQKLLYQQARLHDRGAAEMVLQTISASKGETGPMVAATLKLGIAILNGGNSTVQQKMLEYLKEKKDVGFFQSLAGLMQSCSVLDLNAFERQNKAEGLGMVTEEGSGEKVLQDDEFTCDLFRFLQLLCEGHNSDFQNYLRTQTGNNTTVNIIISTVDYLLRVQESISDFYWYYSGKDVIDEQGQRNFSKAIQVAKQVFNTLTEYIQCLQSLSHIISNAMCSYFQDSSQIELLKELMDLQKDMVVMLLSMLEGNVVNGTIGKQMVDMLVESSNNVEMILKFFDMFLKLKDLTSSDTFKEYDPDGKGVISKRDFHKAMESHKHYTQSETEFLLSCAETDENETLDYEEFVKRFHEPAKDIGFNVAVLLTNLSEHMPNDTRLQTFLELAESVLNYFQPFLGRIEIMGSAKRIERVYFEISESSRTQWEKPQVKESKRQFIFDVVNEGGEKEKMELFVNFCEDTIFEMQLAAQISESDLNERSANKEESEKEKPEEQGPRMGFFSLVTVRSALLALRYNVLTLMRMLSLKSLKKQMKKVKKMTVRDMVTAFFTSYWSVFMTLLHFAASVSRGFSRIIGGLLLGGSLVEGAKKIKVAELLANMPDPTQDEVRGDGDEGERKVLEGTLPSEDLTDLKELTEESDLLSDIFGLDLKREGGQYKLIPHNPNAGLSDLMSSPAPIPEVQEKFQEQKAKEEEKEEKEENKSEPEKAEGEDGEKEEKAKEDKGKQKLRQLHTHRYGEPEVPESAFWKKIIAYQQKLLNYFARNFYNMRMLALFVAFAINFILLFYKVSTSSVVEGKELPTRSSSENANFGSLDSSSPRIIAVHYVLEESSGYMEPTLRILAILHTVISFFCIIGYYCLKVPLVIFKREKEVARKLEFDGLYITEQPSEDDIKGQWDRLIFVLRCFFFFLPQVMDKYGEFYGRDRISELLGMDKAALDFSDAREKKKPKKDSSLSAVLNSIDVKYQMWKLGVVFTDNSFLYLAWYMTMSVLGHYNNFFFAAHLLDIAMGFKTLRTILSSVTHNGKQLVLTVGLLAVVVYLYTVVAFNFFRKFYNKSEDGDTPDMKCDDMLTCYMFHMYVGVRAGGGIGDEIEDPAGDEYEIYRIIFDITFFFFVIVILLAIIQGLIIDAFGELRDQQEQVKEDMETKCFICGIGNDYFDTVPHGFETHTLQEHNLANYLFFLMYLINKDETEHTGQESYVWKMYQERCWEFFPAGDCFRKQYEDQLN

SMILES: COc1ccc(/C=C/c2nc(NCCCN(C)C)c3ccccc3n2)cc1 [CP-31398]
decrease of donor-only FLT as share of the FLT change in the donor-acceptor sample (mouse RyR2 NTR): > 50%

SMILES: O=C(c1ccc(Cl)cc1)N1CCN(c2ccc([N+](=O)[O-])c3ncccc23)CC1 [CPNQ, 5-[4-(4-Chlorobenzoyl)-1-piperazinyl]-8-nitroquinoline]
pEC50 (RyR2; [Ca2+] 30 nM): 7.70 | effect on [3H]ryanodine binding to RyR2 (RyR2; 30 nM Ca2+): inhibitory trend | effect on [3H]ryanodine binding to RyR2 (RyR2; 30 μM Ca2+): did not significantly alter | pEC50 (RyR1; [Ca2+] 30 nM): 7.70 | maximum inhibitory effect on [3H]ryanodine binding (RyR1): approximately 30% | effect on [3H]ryanodine binding to RyR1 (RyR1): only slightly affected | ΔFLT (mouse RyR2 NTR; AC-NTR biosensor): ≈ 0.35 ns | pEC50 (mouse RyR2 NTR; [1]): 5.89

SMILES: CN(C)c1ccccc1CN1CCCN(Cc2ccccc2N(C)C)C1c1ccncc1 [GANT61, 2-[[3-[[2-(dimethylamino)phenyl]methyl]-2-pyridin-4-yl-1,3-diazinan-1-yl]methyl]-N,N-dimethylaniline]
pEC50 (RyR2; [Ca2+] 30 nM): 8.40 | pEC50 (RyR2; [Ca2+], 30 µM): 4.76 | effect on [3H]ryanodine binding to RyR2 (RyR2; 30 μM Ca2+): inhibitor at concentration >1 μM | pEC50 (RyR1; [Ca2+] 30 nM): 8.40 | pEC50 (RyR1; [Ca2+], 30 µM): 5.03 | maximum inhibitory effect on [3H]ryanodine binding (RyR1): ~50% | effect on [3H]ryanodine binding to RyR1 (RyR1): gradual inhibition at concentrations >1 μM | pEC50 (mouse RyR2 NTR; [1]): 4.80 | saturation of FRET dose-response (mouse RyR2 NTR): did not reach saturation within the tested concentration range

pEC50 (mouse RyR2 NTR; hits that increased FLT, read-out: EC50 (FRET dose-response)): > 6.00
SMILES: Nc1ccc(-c2nc3ccc(-c4nc5ccc(N)cc5[nH]4)cc3[nH]2)cc1 [Ro 90-7501, 2'-(4-Aminophenyl)-1H,1'H-2,5'-bibenzimidazol-5-amine]
effect on RyR (RyR): inhibitory

SMILES: CSc1c(C)c(SC)n2ccncc12 [oltipraz M2, 7-Methyl-6,8-bis(methylthio)-pyrrolo[1,2-a]pyrazine]
effect on [3H]ryanodine binding to RyR2 (RyR2; 30 nM Ca2+): almost no effect | effect on [3H]ryanodine binding to RyR2 (RyR2; 30 μM Ca2+): did not significantly alter | pEC50 (RyR1; [Ca2+] 30 nM): 8.30 | maximum inhibitory effect on [3H]ryanodine binding (RyR1): ~50% | effect on [3H]ryanodine binding to RyR1 (RyR1): only slightly affected | pEC50 (mouse RyR2 NTR; [1]): 4.66 | saturation of FRET dose-response (mouse RyR2 NTR): did not reach saturation within the tested concentration range

SMILES: C=CC[C@@H]1/C=C(\C)C[C@H](C)C[C@H](OC)[C@H]2O[C@@](O)(C(=O)C(=O)N3CCCC[C@H]3C(=O)O[C@H](/C(C)=C/[C@@H]3CC[C@@H](O)[C@H](OC)C3)[C@H](C)[C@@H](O)CC1=O)[C@H](C)C[C@@H]2OC [tacrolimus, (3S,4R,5S,8R,9E,12S,14S,15R,16S,18R,19R,26aS)-5,19-dihydroxy-3-{(1E)-1-[(1R,3R,4R)-4-hydroxy-3-methoxycyclohexyl]prop-1-en-2-yl}-14,16-dimethoxy-4,10,12,18-tetramethyl-8-(prop-2-en-1-yl)-5,6,8,11,12,13,14,15,16,17,18,19,24,25,26,26a-hexadecahydro-3H-15,19-epoxypyrido[2,1-c][1,4]oxazacyclotricosine-1,7,20,21(4H,23H)-tetrone]
effect on RyR (RyR): activatory | ΔFLT (mouse RyR2 NTR; AC-NTR biosensor): ≈ 0.1 ns

SMILES: CC/C(=C(\c1ccccc1)c1ccc(OCCN(C)C)cc1)c1ccccc1 [tamoxifen]
decrease of donor-only FLT as share of the FLT change in the donor-acceptor sample (mouse RyR2 NTR): > 50%

SMILES: CO[C@H]1C[C@@H]2CC[C@@H](C)[C@@](O)(O2)C(=O)C(=O)N2CCCC[C@H]2C(=O)O[C@H]([C@H](C)C[C@@H]2CC[C@@H](OC(=O)C(C)(CO)CO)[C@H](OC)C2)CC(=O)[C@H](C)/C=C(\C)[C@@H](O)[C@@H](OC)C(=O)[C@H](C)C[C@H](C)/C=C/C=C/C=C/1C [temsirolimus, (1R,2R,4S)-4-{(2R)-2-[(3S,6R,7E,9R,10R,12R,14S,15E,17E,19E,21S,23S,26R,27R,34aS)-9,27-dihydroxy-10,21-dimethoxy-6,8,12,14,20,26-hexamethyl-1,5,11,28,29-pentaoxo-1,4,5,6,9,10,11,12,13,14,21,22,23,24,25,26,27,28,29,31,32,33,34,34a-tetracosahydro-3H-23,27-epoxypyrido[2,1-c][1,4]oxazacyclohentriacontin-3-yl]propyl}-2-methoxycyclohexyl 3-hydroxy-2-(hydroxymethyl)-2-methylpropanoate]
pEC50 (mouse RyR2 NTR; read-out: EC50 (FRET dose-response), hits that increased FLT): > 6.00
